# In EP2951180B1, “2,6,7,8 SUBSTITUTED PURINES AS HDM2 INHIBITORS” (Merck Sharp & Dohme Corp., priority 2013, dated 2014):
# Target: T1, HDM2 (Homo sapiens, UniProt Q00987)
# T1 construct: Thioredoxin (N); made in house; host or cells: E. coli strain BL21(DE3)Rosetta
# Test: HDM2 FRET assay (inhibition of binding of FITC labeled p53-pocket peptide to HDM2)
# Conditions: Table 6; read-out: FRET IC50
# In short: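 Displacement of FITC-p53 peptide (3 nM) from His-tagged HDM2 (0.5 nM) is measured by Tb-to-fluorescein FRET in PBS, 0.01% BSA, 0.01% Tween-20. IC50 values derive from 10-point curves.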
# T1 sequence (Q00987 17-125): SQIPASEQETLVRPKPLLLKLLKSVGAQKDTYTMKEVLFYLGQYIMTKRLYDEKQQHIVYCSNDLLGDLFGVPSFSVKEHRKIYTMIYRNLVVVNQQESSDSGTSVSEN
row,Compound,IC50 [µM]
1,"CCCCN(CCC)c1nc(C(=O)O)nc2nc(-c3cccc(C)c3)n(Cc3ccc(C(F)(F)F)cc3)c12 [Example 6.68, 6-[butyl(propyl)amino]-8-(3-methylphenyl)-7-[4-(trifluoromethyl)benzyl]-7H-purine-2-carboxylic acid]",0.681
2,"CCCCN(CC)c1nc(C(=O)O)nc2nc(-c3cccc(C)c3)n(Cc3ccc(C(F)(F)F)cc3)c12 [Example 6.69, 6-[butyl(ethyl)amino]-8-(3-methylphenyl)-7-[4-(trifluoromethyl)benzyl]-7H-purine-2-carboxylic acid]",0.621
3,"Cc1cccc(-c2nc3nc(C(=O)O)nc(N(C)CC(C)C)c3n2Cc2ccc(C(F)(F)F)cc2)c1 [Example 6.71, 6-[methyl(2-methylpropyl)amino]-8-(3-methylphenyl)-7-[4-(trifluoromethyl)benzyl]-7H-purine-2-carboxylic acid]",0.94
4,"Cc1cccc(-c2nc3nc(C(=O)O)nc(NC(C)C(C)C)c3n2Cc2ccc(C(F)(F)F)cc2)c1 (stereo not shown) [Example 6.73, 6-[(1,2-dimethylpropyl)amino]-8-(3-methylphenyl)-7-[4-(trifluoromethyl)benzyl]-7H-purine-2-carboxylic acid]",0.437
5,"Cc1cccc(-c2nc3nc(C(=O)O)nc(NC(C)C(C)(C)C)c3n2Cc2ccc(C(F)(F)F)cc2)c1 (stereo not shown) [Example 6.74, 8-(3-methylphenyl)-7-[4-(trifluoromethyl)benzyl]-6-[(1,2,2-trimethylpropyl)amino]-7H-purine-2-carboxylic acid]",0.552
6,"Cc1cccc(-c2nc3nc(C(=O)O)nc(NCC4CCC4)c3n2Cc2ccc(C(F)(F)F)cc2)c1 [Example 6.75, 6-[(cyclobutylmethyl)amino]-8-(3-methylphenyl)-7-[4-(trifluoromethyl)benzyl]-7H-purine-2-carboxylic acid]",0.167
7,"Cc1cccc(-c2nc3nc(C(=O)O)nc(N(C)CC(C)(C)C)c3n2Cc2ccc(C(F)(F)F)cc2)c1 [Example 6.82, 6-[(2,2-dimethylpropyl)(methyl)amino]-8-(3-methylphenyl)-7-[4-(trifluoromethyl)benzyl]-7H-purine-2-carboxylic acid]",0.899
8,"CCCCN(C)c1nc(C(=O)O)nc2nc(-c3cccc(C)c3)n(Cc3ccc(C(F)(F)F)cc3)c12 [Example 6.83, 6-[butyl(methyl)amino]-8-(3-methylphenyl)-7-[4-(trifluoromethyl)benzyl]-7H-purine-2-carboxylic acid]",0.834
9,"Cc1cccc(-c2nc3nc(C(=O)O)nc(N4CCCC4C(C)C)c3n2Cc2ccc(C(F)(F)F)cc2)c1 (stereo not shown) [Example 6.85, 6-[2-(1-methylethyl)pyrrolidin-1-yl]-8-(3-methylphenyl)-7-[4-(trifluoromethyl)benzy 1]-7H-purine-2-carboxylic acid]",0.723
10,"CCCC1CCCN1c1nc(C(=O)O)nc2nc(-c3cccc(C)c3)n(Cc3ccc(C(F)(F)F)cc3)c12 (stereo not shown) [Example 6.86, 8-(3-methylphenyl)-6-(2-propylpyrrolidin-1-yl)-7-[4-(trifluoromethyl)benzyl]-7H-purine-2-carboxylic acid]",0.754
11,"CCC(C)CN(C)c1nc(C(=O)O)nc2nc(-c3cccc(C)c3)n(Cc3ccc(C(F)(F)F)cc3)c12 (stereo not shown) [Example 6.89, 6-[methyl(2-methylbutyl)amino]-8-(3-methylphenyl)-7-[4-(trifluoromethyl)benzyl]-7H-purine-2-carboxylic acid]",0.73
12,"CCCCCN(C)c1nc(C(=O)O)nc2nc(-c3cccc(C)c3)n(Cc3ccc(C(F)(F)F)cc3)c12 [Example 6.91, 6-[methyl(pentyl)amino] -8-(3-methylphenyl)-7-[4-(trifluoromethyl)benzyl]-7H-purine-2-carboxylic acid]",0.731
13,"Cc1cccc(-c2nc3nc(C(=O)O)nc(N4CCCC4C4CCC4)c3n2Cc2ccc(C(F)(F)F)cc2)c1 (stereo not shown) [Example 6.92, 6-(2-cyclobutylpyrrolidin-1-yl)-8-(3-methylphenyl)-7-[4-(trifluoromethyl)benzyl]-7H-purine-2-carboxylic acid]",0.352
14,"Cc1cccc(-c2nc3nc(C(=O)O)nc(N4CCC4C4CCC4)c3n2Cc2ccc(C(F)(F)F)cc2)c1 (stereo not shown) [Example 6.93, 6-(2-cyclobutylazetidin-1-yl)-8-(3-methylphenyl)-7-[4-(trifluoromethyl)benzyl]-7H-purine-2-carboxylic acid]",0.806
15,"Cc1cccc(-c2nc3nc(C(=O)O)nc(N4CCCCC4C4CCC4)c3n2Cc2ccc(C(F)(F)F)cc2)c1 (stereo not shown) [Example 6.95, 6-(2-cyclobutylpiperidin-1-yl)-8-(3-methylphenyl)-7-[4-(trifluoromethyl)benzyl]-7H-purine-2-carboxylic acid]",0.271

# Same assay, conditions: read-out: inh. at 1000 nM (FRET)
row,Compound,inhibition at 1 µM [%]
1,"Cc1cccc(-c2nc3nc(C(=O)O)nc(N(C)C4CCCC4)c3n2Cc2ccc(C(F)(F)F)cc2)c1 [Example 6.65, 6-[cyclopentyl(methyl)amino]-8-(3-methylphenyl)-7-[4-(trifluoromethyl)benzyl]-7H-purine-2-carboxylic acid]",35
2,"Cc1cccc(-c2nc3nc(C(=O)O)nc(N4Cc5ccccc5C4)c3n2Cc2ccc(C(F)(F)F)cc2)c1 [Example 6.66, 6-(1,3-dihydro-2H-isoindol-2-yl)-8-(3-methylphenyl)-7-[4-(trifluoromethyl)benzyl]-7H-purine-2-carboxylic acid]",46
3,"Cc1cccc(-c2nc3nc(C(=O)O)nc(N(C)Cc4ccccc4)c3n2Cc2ccc(C(F)(F)F)cc2)c1 [Example 6.67, 6-[benzyl(methyl)amino]-8-(3-methylphenyl)-7-[4-(trifluoromethyl)benzyl]-7H-purine-2-carboxylic acid]",30
4,"CCCN(CC)c1nc(C(=O)O)nc2nc(-c3cccc(C)c3)n(Cc3ccc(C(F)(F)F)cc3)c12 [Example 6.70, 6-[ethyl(propyl)amino]-8-(3-methylphenyl)-7-[4-(trifluoromethyl)benzyl]-7H-purine-2-carboxylic acid]",39
5,"Cc1cccc(-c2nc3nc(C(=O)O)nc(N(C)CC(C)C)c3n2Cc2ccc(C(F)(F)F)cc2)c1 [Example 6.72, 6-[methyl(2-methylpropyl)amino]-8-(3-methylphenyl)-7-[4-(trifluoromethyl)benzyl]-7H-purine-2-carboxylic acid]",40
6,"Cc1cccc(-c2nc3nc(C(=O)O)nc(N4CCCC4CC(C)C)c3n2Cc2ccc(C(F)(F)F)cc2)c1 (stereo not shown) [Example 6.76, 8-(3-methylphenyl)-6-[2-(2-methylpropyl)pyrrolidin-1-yl]-7-[4-(trifluoromethyl)benzyl]-7H-purine-2-carboxylic acid]",32
7,"Cc1cccc(-c2nc3nc(C(=O)O)nc(N(C)CCC(C)C)c3n2Cc2ccc(C(F)(F)F)cc2)c1 [Example 6.77, 6-[methyl(3-methylbutyl)amino]-8-(3-methylphenyl)-7-[4-(trifluoromethyl)benzyl]-7H-purine-2-carboxylic acid]",36
8,"CCC1CCCN1c1nc(C(=O)O)nc2nc(-c3cccc(C)c3)n(Cc3ccc(C(F)(F)F)cc3)c12 (stereo not shown) [Example 6.78, 6-(2-ethylpyrrolidin-1-yl)-8-(3-methylphenyl)-7-[4-(trifluoromethyl)benzyl]-7H-purine-2-carboxylic acid]",33
9,"CCCC(C)N(C)c1nc(C(=O)O)nc2nc(-c3cccc(C)c3)n(Cc3ccc(C(F)(F)F)cc3)c12 (stereo not shown) [Example 6.79, 6-[methyl(1-methylbutyl)amino]-8-(3-methylphenyl)-7-[4-(trifluoromethyl)benzyl]-7H-purine-2-carboxylic acid]",43
10,"Cc1cccc(-c2nc3nc(C(=O)O)nc(N4CCCC4C4CCCCC4)c3n2Cc2ccc(C(F)(F)F)cc2)c1 (stereo not shown) [Example 6.80, 6-(2-cyclohexylpyrrolidin-1-yl)-8-(3-methylphenyl)-7-[4-(trifluoromethyl)benzyl]-7H-purine-2-carboxylic acid]",40
11,"Cc1cccc(-c2nc3nc(C(=O)O)nc(N(C)C(C)C(C)C)c3n2Cc2ccc(C(F)(F)F)cc2)c1 (stereo not shown) [Example 6.81, 6-[(1,2-dimethylpropyl)(methyl)amino]-8-(3-methylphenyl)-7-[4-(trifluoromethyl)benzyl]-7H-purine-2-carboxylic acid]",46
12,"Cc1cccc(-c2nc3nc(C(=O)O)nc(N(C)C(C4CC4)C4CC4)c3n2Cc2ccc(C(F)(F)F)cc2)c1 [Example 6.84, 6-[(dicyclopropylmethyl)(methyl)amino]-8-(3-methylphenyl)-7-[4-(trifluoromethyl)benzyl]-7H-purine-2-carboxylic acid]",46
13,"Cc1cccc(-c2nc3nc(C(=O)O)nc(N4CCCC4C(C)(C)C)c3n2Cc2ccc(C(F)(F)F)cc2)c1 (stereo not shown) [Example 6.87, 6-(2-tert-butylpyrrolidin-1-yl)-8-(3-methylphenyl)-7-[4-(trifluoromethyl)benzyl]-7H-purine-2-carboxylic acid]",43
14,"Cc1cccc(-c2nc3nc(C(=O)O)nc(N(C)C(C)C4CC4)c3n2Cc2ccc(C(F)(F)F)cc2)c1 (stereo not shown) [Example 6.88, 6-[(1-cyclopropylethyl)(methyl)amino]-8-(3-methylphenyl)-7-[4-(trifluoromethyl)benzyl]-7H-purine-2-carboxylic acid]",33
15,"Cc1cccc(-c2nc3nc(C(=O)O)nc(N(C)CC4CC4(C)C)c3n2Cc2ccc(C(F)(F)F)cc2)c1 (stereo not shown) [Example 6.90, 6-{[(2,2-dimethylcyclopropyl)methyl](methyl)amino}-8-(3-methylphenyl)-7-[4-(trifluoromethyl)benzyl]-7H-purine-2-carboxylic acid]",34
16,"Cc1cccc(Nc2nc(C(=O)O)nc3nc(-c4cccc(C)c4)n(Cc4ccc(C(F)(F)F)cc4)c23)c1 [Example 6.94, 8-(3-methylphenyl)-6-[(3-methylphenyl)amino]-7-[4-(trifluoromethyl)benzyl]-7H-purine-2-carboxylic acid]",32
